Source: ChEMBL document CHEMBL1146799, “Molecular modeling on DNA cleavage activity of seryl-histidine and related dipeptide” (Bioorg Med Chem Lett, 2004)
Residues, ends and D or L forms follow the SMILES beside them.

Legend:
Nucleic Acid [1] = assay: DNA cleaving activity was determined; +++++ indicates 100% of Ser-His cleavage activity; format: functional
Nucleic Acid [2] = assay: DNA cleaving activity was determined; +/- indicates marginally detectable cleavage activity; format: functional

Row | Structure (SMILES) | Activity (Nucleic Acid [1]) | Activity (Nucleic Acid [2])
1 | N[C@@H](CO)C(=O)N[C@@H](Cc1c[nH]cn1)C(=O)O (H-Ser-His-OH) | ++++ | 
2 | C[C@@H](O)[C@H](N)C(=O)N[C@@H](Cc1c[nH]cn1)C(=O)O (H-Thr-His-OH) |  | +/-
